We go through 3 compounds from paper PMC6225212, “Synthesis and Pharmacological Evaluation of Novel Silodosin-Based Arylsulfonamide Derivatives as α1A/α1D-Adrenergic Receptor Antagonist with Potential Uroselective Profile” (Molecules : A Journal of Synthetic Chemistry and Natural …, 2018).

Data set [1] concerns the target T1, histaminic H1R (Homo sapiens, UniProt P35367).
T1 construct: Eurofins (Celle-Lévescault, France)
Description: Off-target panel at Eurofins Cerep, H1. To be noted: read-out: inhibition at histamine H1. The format is binding. On the procedure:
(§1) Finally, the percentage of inhibition for selected compounds 9 and 10 for off-target histaminic H1R, muscarinic M1R, adrenergic β1-AR and potassium ion channel hERG were assessed at Eurofins (Celle-Lévescault, France) according to the procedure online at www.eurofins.com.

Data set [2] can be described thus: In vitro metabolic stability in rat-liver microsomes (RLM). The class given is in vitro ADME. To be noted: for Major Metabolic Pathway: RLM; for microsomal CLint at 10 μM / half-life at 10 μM: male, rat, rat liver microsomes, pH 7.4, RLM 0.2 mg/mL, compound 10 μM, 37 °C; for half-life at 10 μM: read-out: t½. On the procedure:
In vitro biotransformation assays of selected compounds 9 and 10 were performed using rat-liver microsomes (RLM), potassium-phosphate buffer, NADPH-regenerating system (NADP, glucose-6-phosphate, glucose-6-phosphate dehydrogenase), and levallorphan as internal standard, according to the previously published procedure. Compound I and the drug tamsulosin were used as reference standard. UPLC/MS analysis (Waters Corporation, Milford, MA, USA) was performed to determine the quantity of the starting material left in solution. The in vitro half-time (t1/2) for test compounds was determined from the slope of the linear regression of ln % parent compound remaining versus incubation time. The calculated t1/2 was incorporated into the following equation to obtain intrinsic clearance: (Clint) = (volume of incubation [µL]/protein in the incubation [mg]) × 0.693/t1/2.
Metabolic stability of tested compound was analyzed using incubation systems, composed of: tested compounds (10 μM), RLMs (microsomes from rat male liver, pooled; 0.2 mg/mL; Sigma Aldrich), NADPH-regenerating system (NADP+, glucose-6-phosphate and glucose-6-phosphate dehydrogenase in 100mM potassium buffer, pH 7.4; all from Sigma Aldrich), and potassium buffer, pH 7.4. […] Firstly, all samples contained incubation mixture (without NADPH-regenerating system) were preincubated in a thermoblock at 37 °C for 10 min. Then reaction was initiated by the addition of NADPH-regenerating system. In control samples NADPH-regenerating system was replaced with potassium buffer. Probes were incubated in thermoblock for 15 and 30 min at 37 °C. After addition of internal standard (levallorphan, 10 μM), the biotransformation process was stopped by addition of perchloric acid (69–72%, by volume). Next, samples were centrifuged (Centrifuge 5427 R, Eppendorf, Hamburg, Germany) and supernatants were analyzed using UPLC/MS (Waters Corporation). All experiments were run in duplicates. Half-life time was evaluated using a nonlinear regression model using Graph Pad Prism software (Graph Pad Software, La Jolla, San Diego, CA, USA) and intrinsic clearance was calculated from the equation Clint = (volume of incubation [μL]/protein in the incubation [mg]) ×∙0.693/t1/2 [33].

For data set [3], the system named is α1-ARs. Description: Radioligand binding, displacement of [3H]-Prazosin from α1-ARs on rat cerebral cortex. To be noted: for Sα2/α1 (ratio of affinity for α2- and α1-ARs): Ki α2 / Ki α1; for Ki: [3H]-Prazosin, rat cerebral cortex, ± SEM, two independent experiments. As for the experimental part:
The pharmacological profile of the new compounds was assessed in radioligand-binding assays as the ability to displace [^3H]-Prazosin or [^3H]-Clonidine from α1- and α2-ARs, respectively, on rat cerebral cortex. The inhibition constants (Ki) were calculated from the Cheng-Prusoff equation [24].
The affinity of the obtained compounds was evaluated by radioligand-binding assays (the ability to displace [^3H]-Prazosin and [^3H]-Clonidine from α1- and α2-ARs, respectively) on rat cerebral cortex. The brains are homogenized in 20 volumes of an ice-cold 50 mM Tris-HCl buffer (pH 7.6) and is centrifuged (MPW Med. Instruments, Warsaw, Poland) at 20,000 g for 20 min (0–4 °C). The cell pellet is resuspended in the Tris-HCl buffer and centrifuged again. Radioligand-binding assays are performed in plates (MultiScreen/Millipore, Burlington, MA, USA). The final incubation mixture (final volume 300 µL) consisted of 240 µL of the membrane suspension, 30 µL of [^3H]-Prazosin (0.2 nM) or [^3H]-Clonidine (2 nM) solution, and 30 µL of the buffer containing seven to eight concentrations (10^−11 to 10^−4 M) of the tested compounds. For measuring the unspecific binding, phentolamine, 10 µM (in the case of [^3H]-Prazosin) and clonidine, and 10 µM (in the case of [^3H]-Clonidine), were applied. The incubation was terminated by rapid filtration over glass fiber filters (Whatman GF/C, Sigma-Aldrich) using a vacuum manifold (Millipore). The filters were then washed twice with the assay buffer and placed in scintillation vials with a liquid-scintillation cocktail. Radioactivity was measured in a WALLAC 1409 DSA liquid-scintillation counter (BioSurplus, San Diego, CA, USA). All the assays were made in duplicate.
On the technique in general: Displacement assays read how much labelled ligand stays bound in the presence of the test substance.

Data set [4] concerns the target T2, adrenergic β1-AR (Homo sapiens, UniProt P08588).
T2 construct: Eurofins (Celle-Lévescault, France)
Briefly: Off-target panel at Eurofins Cerep, β1. The class given is binding. As for the experimental part:
as §1

In data set [5] the test system is normotensive anaesthetized rats. Briefly: Effect on blood pressure after single i.v. administration in normotensive anaesthetized rats. The format is in vivo, rat. To be noted: 2 mg/kg i.v. As for the experimental part: The experiments were performed to our previously reported method.
Identified compounds 9 and 10 with favorable α1B/α1D profile and acceptable metabolic stability were selected for in vivo tests to evaluate their influence on blood pressure. Hypotensive activity was determined after one time i.v. administration to normotensive anaesthetized rats at single doses of 2 mg/kg according to our previously reported method.
The experiments were carried out on male Wistar rats (body weight 200–250 g). The animals were housed in pairs in plastic cages in constant-temperature facilities exposed to a 12:12 h light/dark cycle; water and food were available ad libitum. Experimental groups consisted of 6 animals each. All experiments were conducted in accordance with the NIH Guide for Care and Use of Laboratory Animals and were approved by the Animal Use and Care Committee of the Jagiellonian University (2012, Kraków, Poland).
The normotensive rats were anesthetized with thiopental (70 mg/kg) by i.p. injection. The left carotid artery was cannulated with polyethylene tubing filled with heparin solution in saline to facilitate pressure measurements using PowerLab Apparatus (ADInstruments, Sydney, Australia). Blood pressure was measured: before administration of the compounds—time 0 min (control pressure), and 60 min thereafter. For each compound, studies were performed in the dose of 2 mg/kg b.w. Compounds were dissolved in water and administered intravenously. Initial blood pressure before administration of the tested compounds in all groups was similar.
Statistical calculations were carried out with the GraphPadPrism 6 program (GraphPad Software). Results are given as the arithmetic means with standard deviation (SD). The statistical significance was calculated using a one-way ANOVA and posthoc Bonfferoni Test in comparison to 0.9% NaCl. Differences were considered statistically significant at: * p ≤ 0.05, ** p ≤ 0.01, *** p ≤ 0.001.

“Also recorded” adds a separate entry of the source.

T2 sequence (P08588 whole entry): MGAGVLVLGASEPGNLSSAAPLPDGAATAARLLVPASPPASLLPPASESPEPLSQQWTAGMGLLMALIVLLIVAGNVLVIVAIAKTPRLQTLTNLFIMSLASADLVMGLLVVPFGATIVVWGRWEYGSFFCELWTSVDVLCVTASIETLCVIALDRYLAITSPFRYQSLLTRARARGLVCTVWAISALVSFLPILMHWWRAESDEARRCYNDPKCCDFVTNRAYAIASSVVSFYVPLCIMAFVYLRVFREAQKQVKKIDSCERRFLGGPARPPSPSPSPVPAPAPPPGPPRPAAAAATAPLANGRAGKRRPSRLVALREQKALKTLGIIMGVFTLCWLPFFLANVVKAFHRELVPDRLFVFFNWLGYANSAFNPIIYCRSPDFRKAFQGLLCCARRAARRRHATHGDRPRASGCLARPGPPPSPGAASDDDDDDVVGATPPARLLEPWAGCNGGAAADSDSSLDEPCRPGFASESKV
T1 sequence (P35367 whole entry): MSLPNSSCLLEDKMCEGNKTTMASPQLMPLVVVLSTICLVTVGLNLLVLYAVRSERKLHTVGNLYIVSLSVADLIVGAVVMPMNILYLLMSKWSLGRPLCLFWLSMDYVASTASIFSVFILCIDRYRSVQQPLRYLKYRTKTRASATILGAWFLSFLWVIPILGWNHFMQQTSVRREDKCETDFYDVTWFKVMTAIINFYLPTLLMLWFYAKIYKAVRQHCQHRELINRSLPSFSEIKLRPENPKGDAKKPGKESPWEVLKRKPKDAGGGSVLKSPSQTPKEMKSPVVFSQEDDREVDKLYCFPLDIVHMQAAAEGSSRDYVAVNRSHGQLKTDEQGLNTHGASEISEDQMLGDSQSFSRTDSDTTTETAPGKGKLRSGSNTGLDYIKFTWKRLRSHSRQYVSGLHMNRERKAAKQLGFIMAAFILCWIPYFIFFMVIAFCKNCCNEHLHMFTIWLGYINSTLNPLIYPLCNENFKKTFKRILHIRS

For `O=S(=O)(NCC1CCN(CCOc2ccccc2OCC(F)(F)F)CC1)c1cccc(Cl)c1F` [Compound 9, 3-Chloro-2-fluoro-N-[(1-{2-[(2,2,2-trifluoroethoxy)phenoxy]ethyl}piperidin-4-yl)methyl]benzenesulfonamide], the inhibition (usually the percentage by which the read-out fell short of the control) at 1 µM in data set [1] is < 50%. Besides, in data set [2], the “Major Metabolic Pathway” value is given as “N-dealkylation”; the microsomal CLint (usually the capacity of the preparation to metabolise the compound, expressed as a volume cleared per time) at 10 μM came out at 67 µL/min/mg; the half-life at 10 μM stood at 51.5 min. Also, in data set [3], the “Sα2/α1 (ratio of affinity for α2- and α1-ARs)” value was 17; the affinity corresponds to a Ki of 50 ± 2 nM. The inhibition at 1 µM in data set [4] is < 50%. The “effect on blood pressure, in words (significance vs 0.9% NaCl)” value (from here on “effect … (significance vs 0.9% NaCl)”) in data set [5] is “did not decrease systolic and diastolic blood pressure; also recorded: insignificantly”.
In the case of `CCOc1ccccc1OCCN[C@H](C)Cc1ccc(OC)c(S(N)(=O)=O)c1` [tamsulosin, reference compound], in data set [2], the “Major Metabolic Pathway” value is reported as “N-dealkylation”, the microsomal CLint at 10 μM is 41 µL/min/mg and the half-life at 10 μM came to 83 min. Moreover, the “effect … (significance vs 0.9% NaCl)” value in data set [5] was “significantly through whole period of observation”. The “decrease of DBP” value in data set [5] (over 60 min) is on record as 13.3–16.6 mmHg.
With `O=S(=O)(NCC1CCN(CCOc2ccccc2OCC(F)(F)F)CC1)c1cc(Cl)ccc1F` [Compound 10, 5-Chloro-2-fluoro-N-[(1-{2-[(2,2,2-trifluoroethoxy)phenoxy]ethyl}piperidin-4-yl)methyl]benzenesulfonamide], the inhibition at 1 µM in data set [1] was < 50%. For the same compound, in data set [2], the “Major Metabolic Pathway” value is “N-dealkylation”, the microsomal CLint at 10 μM came out at 91.7 µL/min/mg and the half-life at 10 μM is 37.8 min. Moreover, in data set [3], the “Sα2/α1 (ratio of affinity for α2- and α1-ARs)” value was 23; the Ki (in general, the dissociation constant of the complex between target and ligand, obtained from inhibition or displacement) stood at 26 ± 1 nM. For the same compound, the inhibition at 1 µM in data set [4] is < 50%. For the same compound, the “effect … (significance vs 0.9% NaCl)” value in data set [5] is “statistically significant drop in systolic blood pressure was observed from 30 min after administration”.
